In patent US20250072441A1, “METHOD FOR PREPARING A COMESTIBLE NUTRIENT COMPOSITION AND USE THEREOF” (The Cultivated B. GmbH, priority 2022, published 2025):
pIC50: −log10 of the molar value. Where two headings read alike, the source gives them in different places.

What was measured:
HepG2 cells [1] = experiment: Neutral Red Assay, cell viability/cytotoxicity; type: cell-based; conditions: Homo sapiens, 48 h, 2 days after compound addition, n=3
Procedure: It is a cellular assay that is based on a eurhodin dye that stains the lysosomes of viable cells. HepG2 cells were supplied by ATCC (HB-8065), cultured in DMEM supplemented with 10% FBS and grown in a incubator set to 37° C. and 5% CO2. For both assays, cells were seeded at 5.000 cells/well in a 96-well plate using only the 32 central wells. Due to inherent clumping of HepG2 cells, amount of cells could not be properly measured and varied between assays. […] Cells were processed after 2 days of compound addition. The Neutral Red Assay Kit—Cell Viability/Cytotoxicity (ab234039, Abcam) was used. All solutions of the kit were aliquoted and stored at −20° C. as recommended. […] Cell medium was removed and cells washed with 200 μL of 1× washing solution. After addition of 150 μL of 1× Neutral Red Staining Solution, cells were stained for 2 hours in the incubator. Cells were washed with 250 μL of 1× washing solution, and then air dried for approx. 10 min until no liquid was visible on the plate. Addition of 150 μL 1× solubilization solution was followed by shaking the plate for 20 min at 500 rpm and RT. The 96-well plate was then read at a microplate reader at an OD of 540 nm.

HepG2 cells [2] = conditions: read-out: IC50, expected literature value reported in the manual for the Neutral Red Assay; cited from earlier work
HepG2 cells [3] = experiment: cells; conditions: Homo sapiens, HepG2, 48 h
Procedure: This cellular assay quantitates the amount of ATP that can be correlated to cell viability. HepG2 cells were supplied by ATCC (HB-8065), cultured in DMEM supplemented with 10% FBS and grown in a incubator set to 37° C. and 5% CO2. For both assays, cells were seeded at 5.000 cells/well in a 96-well plate using only the 32 central wells. Due to inherent clumping of HepG2 cells, amount of cells could not be properly measured and varied between assays. Various concentrations of Doxorubicin were added 18 hours after seeding to the cells at a volume of 0.2 μL of cells using IDOT. Cells were processed after 2 days of compound addition. The CellTiter-Glo 2.0 Cell Viability Assay (G9242, Promega) was used. The solution was thawed and stored at 4° C. as recommended. Cell medium was removed, then cells were washed 2× in 100 μL PBS. After the last wash, 50 μL of PBS followed by 50 μL of CellTiter-Glo 2.0 reagent were added. The 96-well plate was mixed for 2 min on an orbital shaker and incubated at 10 min at RT. Luminescence was recorded at a microplate reader, using a integration time of 1.000 ms. For both assays, data for dose-response experiments was fitted with the equation “Log(agonist) vs response−Variable slope (four parameters)” using Prism.

pIC50 (HepG2 cells [3]): 6.94
SMILES: COc1cccc2c1C(=O)c1c(O)c3c(c(O)c1C2=O)C[C@@](O)(C(=O)CO)C[C@@H]3O[C@H]1C[C@H](N)[C@H](O)[C@H](C)O1 [Doxorubicin]
pIC50 (HepG2 cells [1]): 7.10
pIC50 (HepG2 cells [2]): 6.16
